Test results taken from patent US20250319068A1, “TREATMENT OF DISEASES VIA ADMINISTRATION OF BUNTANETAP AND AN […] AGENT” (ANNOVIS BIO, INC., priority 2024, published 2025).
Entries after “also recorded” stand apart in the source; their conditions may differ. Read-outs that look alike come from different tables or passages of the source.

Legend:
tau [1] = settings: Human tau mice; unpublished observation; cited from earlier work
[2] = system: traumatic brain injury rats; settings: cited from earlier work
[3] = system: human SNCAA53T tg mouse model of PD; settings: cited from earlier work
αSYN [4] = settings: transgenic Parkinson's animals; cited from earlier work
[5] = Phase 1 single and multiple ascending dose safety, tolerance, pharmacokinetic studies; settings: pharmacokinetic analyses of Phase I studies
Experimental: This publication reported the results of a Phase 2a Clinical Study which was a double-blind, placebo-controlled, multi-center study of 14 early AD patients and 54 early PD patients. AD patients were given either 80 mg buntanetap or placebo QD. PD patients were given 5 mg, 10 mg, 20 mg, 40 mg, 80 mg buntanetap or placebo QD. The primary endpoint was safety and tolerability; secondary endpoint is pharmacokinetics of buntanetap in plasma.
The double phase 2 clinical trial recruited 14 AD (Alzheimer's disease) and 54 patients and treated them over 25 with a once daily dose of buntanetap. The 14 AD patients receive either 80 mg QD or placebo, whereas the 54 PD (Parkinson's disease) patients received 5, 10 20, 40 80 mg QD or placebo.

[6] = system: fully differentiated Down syndrome nerve cells; settings: cited from earlier work
[7] = system: CSF levels of sAPPα, sAPPβ, Aβ42, Tau (total and phosphorylated), alpha-synuclein and inflammatory markers; assay: Study of MCI subjects: CSF biomarkers before and after 10 days of buntanetap; settings: before and after 10 days of administration
Excerpt: FIG. 3 is a study of subjects with mild cognitive impairment (MCI) for early proof of mechanism (POM) using a well-tolerated dose of buntanetap. Before and after 10 days of buntanetap administration to the MCI subjects, plasma, and cerebrospinal fluid (CSF) samples were obtained for analysis of levels of secreted(s) APPα and APPβ, and Aβ42, Tau (total and phosphorylated), and inflammatory markers.

APP [8] = assay: APP in vitro, Western blot in SH-SY-5Y cells (FIG. 1); assay type: cell-based; settings: SH-SY-5Y human neuroblastoma cells; 0, 0.1, 1, 5 and 10 μM
[9] = system: CSF levels of sAPPα, sAPPβ, Aβ42, Tau (total and phosphorylated), alpha-synuclein and inflammatory markers; settings: cited from earlier work
[10] = system: Ts65dn mouse model of Down Syndrome (DS); settings: cited from earlier work
αSYN [11] = settings: neuroblastoma cells; cited from earlier work
rat acute glaucoma model = settings: cited from earlier work
APP and its fragments [12] = assay: APP in vivo in APP/PS1 transgenic AD mice, hippocampus (FIG. 2A); parameters: species or system mouse
Excerpt: FIG. 2A is a Table, collection of graphs and a Western blot showing that buntanetap treatment of APP/PS1 transgenic AD mice reduced APP and its fragments in hippocampus.
FIG. 2A, APP in vivo. […] GAPDH and Synaptophysin were loading controls. FIG. 2 also includes a collection of graphs showing relative density of APP plotted against control and time after buntanetap treatment; relative density of CTFβ plotted against control and time after buntanetap treatment; relative density of CTFα plotted against control and time after buntanetap treatment; Aβ42 levels in brain tissue plotted against control and time after buntanetap treatment; and Aβ40 levels in brain tissue plotted against control and time after buntanetap treatment. Finally, FIG. 2 also includes a Western blot showing levels of APP, NSB, CTFβ, and CTFα after buntanetap treatment over time (minutes).

[13] = system: patients with mild to moderate AD; assay: Phase II/III trial in mild to moderate AD, 12 weeks (NCT05686044); assay type: in vivo, human
Experimental: A randomized, double-blind, placebo-controlled Phase II/III study trial investigating the efficacy, safety, and tolerability of buntanetap in patients with mild to moderate AD was conducted. This was a dose-ranging study where patients received either one of three doses of buntanetap (7.5 mg, 15 mg, or 30 mg) or placebo on top of their standard of care for 12 weeks. In this study, over 700 patients were screened, a total of 353 patients were enrolled, and 325 patients completed the study across 54 sites in the US. The study included mild to moderate AD patients whose Mini Mental State Examination (MMSE) scores at baseline ranged from 14 to 24. (www.clinicaltrials.gov (NCT05686044)).
Beyond safety, the trial assessed the changes in two co-primary endpoints: Alzheimer's Disease Assessment Scale-Cognitive Subscale 11 (ADAS-Cog 11) and Alzheimer's Disease Cooperative Study Clinician's Global Impression of Change (ADCS-CGIC), which assess cognition and activities of daily living. The study monitored for safety and collected plasma to measure several biomarkers to assess the disease state, potential disease progression, and treatment effects.
The treatment response in the current study was not related to a patient's age or sex.
EOT-End of Treatment *P<0.05; **P<0.01; ***P<0.001.
When the baseline MMSE scores for patients positive for AD according to their pTau217/tTau >4.2% ratio were subdivided, a dose-dependent relationship to MMSE at baseline was observed. It was concluded that the response to buntanetap treatment is more pronounced in mild AD patients than in those with more advanced AD. The response in the 30 mg dose treatment group R2=0.17 (R^2 or the coefficient of determination), p <0.001, indicates statistical significance of the MMSE score, which was not evident in the placebo group.

[14] = cited from earlier work
[15] = system: early AD patients and early PD patients; settings: cited from earlier work
APP [16] = settings: neuroblastoma cells; cited from earlier work
[17] = system: APP/PS1 transgenic (tg) mouse model of AD; settings: cited from earlier work
tau [18] = settings: unpublished observation, Peter Davies Laboratory; cited from earlier work
Huntingtin Protein = settings: through Translational Suppression; cited from earlier work
APP and its fragments [19] = settings: APP/PS1 transgenic mice; cited from earlier work
[20] = system: dementia with Lewy bodies (DLB) in men; settings: cited from earlier work; for risk of DLB lower compared to 5ARIs / risk of DLB lower compared to tamsulosin: terazosin, doxazosin, or alfuzosin pooled
[21] = clinical studies; cited from earlier work
[22] = men newly started on terazosin, doxazosin, or alfuzosin (pooled) vs matched men taking tamsulosin

SMILES: CN1CC[C@]2(C)c3cc(OC(=O)Nc4ccccc4)ccc3N(C)C12 (stereo partly drawn) [Buntanetap, (3aR)-1,3a,8-trimethyl-1,2,3,3a,8,8a-hexahydropyrrolo[2,3-b]indol-5-yl phenylcarbamate]
- tau in vivo (tau [1]): lowers tau
- inflammation in the rat brain ([2]; after TBI): lowered inflammation
- nerve cell protection in rat substantia Ingra ([2]; after TBI): protected nerve cells
- synaptic transmission in rat striatum ([2]; after traumatic brain injury (TBI)): Normalized impaired synaptic transmission
- memory and learning ([2]; traumatic brain injury rats): Preserved memory and learning
- colonic motility [3]: Restored colonic motility
- αSYN in vivo in the brain and in the gut (αSYN [4]): lowers αSYN
- brain concentration relative to plasma [5]: about 8 times
- anterograde and retrograde vesicle transport [6]: Normalized anterograde and retrograde vesicle transport
- APP/Aβ, tau/phosphor-tau and alpha-synuclein in the spinal fluid (FIG. 3) [7]: normalized
- APP in relation to Actin standard (Western blot) (APP [8]): lowers APP in vitro in a dose-dependent manner
- duration of effect in lowering neurotoxic proteins and inflammation after the last dose ([9]; CSF sampling period after the last dose): ≥ 12 h
- levels of APP, Tau, and αSYN in the cerebrospinal fluid (CSF) ([9]; MCI subjects, 4×60 mg/day): normalized
- half-life in CSF ([9]; MCI subjects): > 12 h
- inflammation in human CSF ([9]; MCI subjects): lowered inflammation
- CSF Aβ42 ([9]; five MCI subjects): trend to lower
- CSF levels of sAPPα, sAPPβ, t-tau, p-tau, and specific inflammatory markers ([9]; five MCI subjects): significantly lowered
- memory and learning [10]: Restored memory and learning
- αSYN in vitro (αSYN [11]): lowers αSYN
- retina (rat acute glaucoma model; acute glaucoma): Preserved the retina
- nerve cell protection (rat acute glaucoma model; rat acute glaucoma model): protected nerve cells
- duration of reduction of APP and all related peptides in hippocampus after the last dose (APP and its fragments [12]; APP/PS1 mice): at least 9 hours
- APP and its fragments in hippocampus (APP and its fragments [12]; APP/PS1 transgenic AD mice): reduced
- Non-Responders (Number) ([13]; 7.5 mg): 5
- Non-Responders (Percentage) ([13]; 7.5 mg): (26.32%)
- Responders (Number) ([13]; 7.5 mg): 14
- Responders (Percentage) ([13]; 7.5 mg): (73.68%)**
- Non-Responders (Number) ([13]; 15 mg): 7
- Non-Responders (Percentage) ([13]; 15 mg): (28.00%)
- Responders (Number) ([13]; 15 mg): 18
- Responders (Percentage) ([13]; 15 mg): (72.00%)**
- Non-Responders (Number) ([13]; 30 mg): 3
- Non-Responders (Percentage) ([13]; 30 mg): (12.50%)
- Responders (Number) ([13]; 30 mg): 21
- Responders (Percentage) ([13]; 30 mg): (87.50%)***
- difference in the proportion of participants who improved relative to placebo ([13]; 30 mg group): three-fold difference
- ADAS-Cog 11 scores relative to placebo ([13]; patients with mild AD, each treatment dose): significantly higher improvement
- tolerability ([14]; healthy human volunteers, doses up to 4×60 mg daily X 10 days): well tolerated
- terminal half-life ([14]; plasma, cleared biphasically): 4.3 to 4.7 h
- axonal integrity and synaptic function ([15]; AD and PD cohorts): improving; also recorded: improved
- inflammatory factors / markers ([15]; AD and PD cohorts): trend in lowering levels; also recorded: reduced
- neurotoxic protein biomarkers ([15]; AD and PD cohorts): trend in lowering levels; also recorded: reduced
- safety and tolerability ([15]; AD and PD patients, doses up to 80 mg): well tolerated; also recorded: safe and promising
- crossing of the blood brain barrier ([15]; AD and PD patients): crossed the blood brain barrier
- ADAS-Cog11 and WAIS coding (cognition) ([15]; AD patients, 80 mg QD): statistically significant improvements; also recorded: improved cognition
- motor function as measured by MDS-UPDRS (Part II, III, IV and total) ([15]; PD patients, 5-80 mg QD, maximum improvement for 10 & 20 mg): improved at all doses motor function
- MDS-UPDRS and WAIS coding ([15]; PD patients): statistically significant improvements
- WAIS speed and accuracy ([15]; PD patients): improved
- Cmax and AUC ([15]; plasma, up to 80 mg QD): increased with dose without evidence for a plateau
- levels of APP in vitro (APP [16]): lowers levels of APP
- synaptic transmission in hippocampus ([17]; APP/PS1 tg mice): Normalized impaired synaptic transmission
- memory and learning ([17]; APP/PS1 tg mouse model of AD): Restored memory and learning
- tau in vitro (tau [18]): lowers tau
- levels of Huntingtin Protein (Huntingtin Protein): reduced the levels of Huntingtin Protein
- levels of APP and all its fragments (APP and its fragments [19]): lowers levels of APP and all its fragments

SMILES: COc1cc2nc(N3CCN(C(=O)C4COc5ccccc5O4)CC3)nc(N)c2cc1OC (stereo not drawn) [doxazosin]
- hazard ratio [HR] of developing DLB [20, 22]: 0.60
- risk of DLB lower compared to 5ARIs [20]: 37%
- risk of DLB lower compared to tamsulosin [20]: 40%
- hazard ratio [HR] of developing DLB ([20]; vs matched men taking 5ARI): 0.73

SMILES: COc1cc2nc(N3CCN(C(=O)C4CCCO4)CC3)nc(N)c2cc1OC (stereo not drawn) [terazosin]
- hazard ratio [HR] of developing DLB [20, 22]: 0.60
- risk of DLB lower compared to 5ARIs [20]: 37%
- risk of DLB lower compared to tamsulosin [20]: 40%
- hazard ratio [HR] of developing DLB ([20]; vs matched men taking 5ARI): 0.73

SMILES: CN1CC[C@@]2(C)c3cc(OC(=O)Nc4ccccc4)ccc3N(C)[C@@H]12 [phenserine, (−)-N-phenylcarbamoyl eseroline]
- side effects [21]: high cholinomimetic side effects

SMILES: COc1cc2nc(N(C)CCCNC(=O)C3CCCO3)nc(N)c2cc1OC (stereo not drawn) [alfuzosin]
- hazard ratio [HR] of developing DLB [20, 22]: 0.60
- risk of DLB lower compared to 5ARIs [20]: 37%
- risk of DLB lower compared to tamsulosin [20]: 40%
- hazard ratio [HR] of developing DLB ([20]; vs matched men taking 5ARI): 0.73

SMILES: CCOc1ccccc1OCCN[C@H](C)Cc1ccc(OC)c(S(N)(=O)=O)c1 [tamsulosin]
- hazard ratio [HR] of developing DLB ([20]; vs matched men taking 5ARI): 1.17
